These results are taken from ChEMBL document CHEMBL5058564, “EUbOPEN Chemogenomics Library 2 (Incucyte)” (2022).

What all share (format): toxicity, cell-based
One data set has as its system HEK-293T. Briefly: Incucyte cell viability with HEK293T. The conditions noted are these: human, 10 µM, compound concentration 10 uM.
For the next data set, the system named is Fibroblast. The experiment in a line: Incucyte cell viability with human fibroblast. The conditions noted are these: 10 µM, compound concentration 10 uM.
Another data set concerns U2OS. Briefly: Incucyte cell viability with U2OS. Conditions: human, 10 µM, compound concentration 10 uM.
The mark [1] stands for this setting: 6 h, replicate number 1, timepoint 6 hours.
Where [2] appears, read: 18 h, replicate number 1, timepoint 18 hours.
[3] abbreviates: 24 h, replicate number 1, timepoint 24 hours.
The mark [4] stands for this setting: 0 h, replicate number 1, timepoint 0 hours.
[5] abbreviates: 0 h, replicate number 2, timepoint 0 hours.
The mark [6] stands for this setting: 6 h, replicate number 2, timepoint 6 hours.
The mark [7] stands for this setting: 18 h, replicate number 2, timepoint 18 hours.
Setting [8] is: 24 h, replicate number 2, timepoint 24 hours.
The mark [9] stands for this setting: 12 h, replicate number 1, timepoint 12 hours.
[10] abbreviates: 12 h, replicate number 2, timepoint 12 hours.
Also: unitless GR value; below 1 slowed growth and below 0 cell loss.

Regarding `O=C(NCc1ccc(F)cc1)N1CCN2C(=O)OC(c3ccccc3)(c3ccccc3)C2C1` (centres undefined), the “Growth Rate” value is on record as 0.88 with HEK-293T (setting [1]); 1 in the data set on HEK-293T (setting [2]); 0.92 in the data set on HEK-293T (setting [3]); -0.48 in the data set with Fibroblast (setting [4]); 0.83 in the data set on Fibroblast (setting [5]); 0.42 in the data set on Fibroblast (setting [6]). Further, the “Growth Rate” value in the data set with Fibroblast (setting [3]) was 0.67; with U2OS (setting [1]) it was 0.37; in the data set on U2OS (setting [6]), 0.99; in the data set on U2OS (setting [7]), 0.99; with U2OS (setting [8]) it was 0.97.
For `CCCCNNC(=O)c1ccc(Br)cc1`, the “Growth Rate” value in the data set on HEK-293T (setting [4]) is listed as 0.97; in the data set with HEK-293T (setting [5]), 0.79; in the data set with HEK-293T (setting [9]), 0.93; with HEK-293T (setting [10]), 0.77; in the data set with Fibroblast (setting [4]), 0.73; in the data set with Fibroblast (setting [5]), 0.26. The “Growth Rate” value in the data set on Fibroblast (setting [1]) is reported as -0.07; in the data set with Fibroblast (setting [6]) it was 0.86; in the data set on Fibroblast (setting [9]) it was 0.37; in the data set with Fibroblast (setting [2]) it was 0.74; in the data set on Fibroblast (setting [7]), 0.93; with Fibroblast (setting [3]), 0.99. For the same molecule, the “Growth Rate” value in the data set on Fibroblast (setting [8]) is on record as 0.91; with U2OS (setting [5]), -0.23; in the data set on U2OS (setting [10]) it was 0.99; with U2OS (setting [2]), 0.94; in the data set on U2OS (setting [8]), 0.91.
For `Cc1ccc(OCC(O)C(C)NC(C)C)c2c1CCC2.Cl` (centres undefined), the “Growth Rate” value is 0.95 in the data set with HEK-293T (setting [5]); 0.7 in the data set with HEK-293T (setting [6]); 0.49 in the data set on HEK-293T (setting [9]); 0.63 in the data set with HEK-293T (setting [10]); 0.16 in the data set with HEK-293T (setting [2]); 0.65 with HEK-293T (setting [7]). In addition, the “Growth Rate” value was determined as 0.03 in the data set on HEK-293T (setting [3]); 0.62 in the data set on HEK-293T (setting [8]); 0.41 with Fibroblast (setting [4]); 0.52 in the data set with Fibroblast (setting [5]); 0.19 in the data set on Fibroblast (setting [6]); 0.74 in the data set on Fibroblast (setting [9]). For the same molecule, the “Growth Rate” value with Fibroblast (setting [10]) was determined as 0.32; with Fibroblast (setting [2]) it was 0.5; in the data set with Fibroblast (setting [7]), 0.54; in the data set on Fibroblast (setting [3]), 0.38; in the data set on Fibroblast (setting [8]), 0.51; in the data set with U2OS (setting [4]), 0.09. Further, the “Growth Rate” value in the data set with U2OS (setting [5]) was found to be 0.28; in the data set on U2OS (setting [1]) it was 1; with U2OS (setting [6]), 0.87; with U2OS (setting [9]) it was 0.83; with U2OS (setting [2]), 0.98.
With `CCN1/C(=C/C(C)=O)Sc2ccc(OC(C)=O)cc21`, the “Growth Rate” value in the data set with HEK-293T (setting [4]) is reported as 0.98; in the data set on HEK-293T (setting [5]), 0.37; in the data set on HEK-293T (setting [1]), 0.5; with HEK-293T (setting [6]), 0.44; in the data set on HEK-293T (setting [9]), 0.29; in the data set on HEK-293T (setting [10]), 0.41. Further, the “Growth Rate” value is listed as 0.49 with HEK-293T (setting [2]); 0.37 with HEK-293T (setting [7]); 0.49 in the data set with HEK-293T (setting [3]); 0.53 with HEK-293T (setting [8]); -0.38 in the data set on Fibroblast (setting [1]); -0.29 in the data set with Fibroblast (setting [6]). Moreover, the “Growth Rate” value is recorded as 0.14 in the data set on Fibroblast (setting [9]); 0.41 in the data set with Fibroblast (setting [10]); 0.17 with Fibroblast (setting [2]); 0.38 with Fibroblast (setting [3]); -0.53 in the data set on U2OS (setting [4]); -1 in the data set with U2OS (setting [5]). The “Growth Rate” value came out at 0.89 in the data set with U2OS (setting [10]), 0.97 with U2OS (setting [7]) and 0.93 in the data set with U2OS (setting [8]).
For `CO[C@H]1CC[C@@H](C(=O)c2ccc3nc4c(cc3c2)CCCO4)CC1`, the “Growth Rate” value in the data set with HEK-293T (setting [1]) is on record as 0.72; in the data set on HEK-293T (setting [9]) it was 0.84; with HEK-293T (setting [2]), 0.59; with HEK-293T (setting [3]) it was 0.73; with Fibroblast (setting [4]), 0.96; in the data set with Fibroblast (setting [6]), 0.07. The “Growth Rate” value is on record as 0.87 in the data set with Fibroblast (setting [10]); 0.79 with Fibroblast (setting [2]); 0.48 in the data set on Fibroblast (setting [3]); -0.12 in the data set with U2OS (setting [1]); 0.55 with U2OS (setting [6]); 0.27 with U2OS (setting [9]). Further, the “Growth Rate” value in the data set on U2OS (setting [10]) turned out to be 0.67; with U2OS (setting [2]), 0.36; with U2OS (setting [7]), 0.74; in the data set with U2OS (setting [3]) it was 0.74; with U2OS (setting [8]), 0.78.
On to `CN(C)c1ccnc2sc3c(=O)n(N4CCCCCC4)cnc3c12`, for which the “Growth Rate” value in the data set on HEK-293T (setting [4]) is reported as 0.91; in the data set with HEK-293T (setting [5]), 0.47; in the data set with HEK-293T (setting [6]) it was 0.98; with Fibroblast (setting [1]) it was -0.22; in the data set with Fibroblast (setting [9]), -0.14; in the data set on Fibroblast (setting [10]), 0.1. Further, the “Growth Rate” value is listed as -0.36 with Fibroblast (setting [2]); 0.11 in the data set on Fibroblast (setting [7]); -0.42 in the data set on Fibroblast (setting [3]); -0.22 in the data set with Fibroblast (setting [8]); -1 in the data set with U2OS (setting [5]); 0.61 with U2OS (setting [1]). Also, the “Growth Rate” value in the data set on U2OS (setting [9]) was determined as 0.54; in the data set with U2OS (setting [2]), 0.51; in the data set on U2OS (setting [7]), 0.91; in the data set on U2OS (setting [3]), 0.78.
For `CNC(=O)c1nn(C)c2c1C(C)(C)Cc1cnc(Nc3ccc(N4CCN(C)CC4)cc3)nc1-2` [MILCICLIB], the “Growth Rate” value in the data set on HEK-293T (setting [1]) is given as -0.57; in the data set with HEK-293T (setting [6]), -0.72; with HEK-293T (setting [9]), -0.22; in the data set on HEK-293T (setting [10]), -0.34; in the data set with HEK-293T (setting [2]), -0.12; with HEK-293T (setting [7]) it was -0.15. Also, the “Growth Rate” value with HEK-293T (setting [3]) is listed as -0.02; with HEK-293T (setting [8]) it was -0.01; in the data set on Fibroblast (setting [5]) it was 1; in the data set with Fibroblast (setting [1]), -0.13; with Fibroblast (setting [6]), -0.21; in the data set with Fibroblast (setting [9]), -0.1. Further, the “Growth Rate” value in the data set with Fibroblast (setting [10]) is reported as -0.07; in the data set with Fibroblast (setting [2]), 0.24; with Fibroblast (setting [7]), 0.23; in the data set on Fibroblast (setting [3]) it was 0.34; in the data set with Fibroblast (setting [8]), 0.33; in the data set on U2OS (setting [4]), -0.33. Further, the “Growth Rate” value with U2OS (setting [1]) was 0.35; with U2OS (setting [6]), 0.23; in the data set with U2OS (setting [9]), 0.17; in the data set on U2OS (setting [10]), 0.29; in the data set with U2OS (setting [2]), 0.23; with U2OS (setting [7]), 0.38. The results for the “Growth Rate” value in the data set on U2OS (setting [3]) and in the data set on U2OS (setting [8]) were 0.21 and 0.25, respectively.
`CC(C)N(CCCCOCC(=O)NS(C)(=O)=O)c1cnc(-c2ccccc2)c(-c2ccccc2)n1` [SELEXIPAG]: the “Growth Rate” value with HEK-293T (setting [4]) is 0.99; in the data set with HEK-293T (setting [5]), 0.73; in the data set on HEK-293T (setting [6]), 0.76; with HEK-293T (setting [9]), 0.89; with HEK-293T (setting [10]) it was 0.73; in the data set on Fibroblast (setting [4]), 0.56. Further, the “Growth Rate” value amounted to 0.34 in the data set with Fibroblast (setting [5]); 0.5 in the data set with Fibroblast (setting [1]); 0.75 in the data set on Fibroblast (setting [9]); 0.76 in the data set on Fibroblast (setting [2]); 0.48 in the data set on Fibroblast (setting [3]); 0.21 with U2OS (setting [4]). Moreover, the “Growth Rate” value with U2OS (setting [5]) is listed as -1; in the data set with U2OS (setting [1]) it was 0.41; in the data set with U2OS (setting [10]), 0.8; in the data set on U2OS (setting [2]) it was 0.99; with U2OS (setting [7]), 0.98; in the data set with U2OS (setting [3]), 1.
Regarding `O=C(CCCc1ccccc1)Nc1nc2ccccc2c(=O)s1`, the “Growth Rate” value worked out at 0.98 in the data set on HEK-293T (setting [5]); 0.03 with HEK-293T (setting [1]); 0.13 in the data set on HEK-293T (setting [9]); 0.34 in the data set on HEK-293T (setting [2]); 0.95 with HEK-293T (setting [7]); 0.34 in the data set with HEK-293T (setting [3]). In addition, the “Growth Rate” value in the data set on HEK-293T (setting [8]) was 0.84; in the data set with Fibroblast (setting [5]), 0.6; in the data set on Fibroblast (setting [1]), -0.7; with Fibroblast (setting [6]) it was -0.65; in the data set on Fibroblast (setting [9]), -0.62; with Fibroblast (setting [10]) it was -0.39. Besides, the “Growth Rate” value is given as -0.7 with Fibroblast (setting [2]); -0.32 in the data set with Fibroblast (setting [7]); -0.59 in the data set with Fibroblast (setting [3]); -0.34 with Fibroblast (setting [8]); -0.37 with U2OS (setting [4]); 0.67 with U2OS (setting [6]). Moreover, the “Growth Rate” value in the data set on U2OS (setting [10]) came out at 0.83; with U2OS (setting [7]) it was 0.76; in the data set with U2OS (setting [8]), 0.84.
As to `COc1cc(C(=O)N(CCCc2ccccc2)Cc2ccc(CC(=O)O)cc2)cc(OC)c1C`, the “Growth Rate” value is 0.55 in the data set with HEK-293T (setting [4]); 0.84 with HEK-293T (setting [5]); -0.55 in the data set on Fibroblast (setting [4]); 0.01 in the data set with Fibroblast (setting [5]); -0.86 with U2OS (setting [4]); 0.79 with U2OS (setting [6]). Besides, the figures for the “Growth Rate” value with U2OS (setting [10]), in the data set on U2OS (setting [7]) and in the data set with U2OS (setting [8]) were 0.94, 0.97 and 0.96, respectively.
